Measurements as given in patent EP2508526A1, “Spiroalkene carboxamide derivatives and their use as chemokine receptor modulators” (Ares Trading SA, priority 2011, dated 2012).
Where a name gives a salt, the structure may show the parent alone.

Biological target: T1, hCCR2b (Homo sapiens, UniProt P41597)
T1 sequence (P41597 1-360 isoform P41597-2): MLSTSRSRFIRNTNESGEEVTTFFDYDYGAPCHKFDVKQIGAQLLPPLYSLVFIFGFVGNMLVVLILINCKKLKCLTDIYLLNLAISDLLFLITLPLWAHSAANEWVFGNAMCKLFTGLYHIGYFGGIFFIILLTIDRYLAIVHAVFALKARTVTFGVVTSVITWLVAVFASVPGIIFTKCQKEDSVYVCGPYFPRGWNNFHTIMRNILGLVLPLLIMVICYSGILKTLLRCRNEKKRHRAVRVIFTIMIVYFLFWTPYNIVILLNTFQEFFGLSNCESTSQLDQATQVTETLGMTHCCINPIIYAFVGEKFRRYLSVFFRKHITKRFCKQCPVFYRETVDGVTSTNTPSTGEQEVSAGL
Assay: CCR2 binding assay ([125I]MCP-1, SPA, CHO cell membranes)
Parameters: expressed in transfected cells; host or cells: CHO cells (membrane preparation)
Conditions: membranes from CHO cells expressing hCCR2b, 50 pM [125I]MCP-1; read-out: Binding hCCR2 (Ki)
Outline: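 CHO membranes expressing hCCR2b (1–5 µg/well) with 50 pM [125I]MCP-1 and WGA SPA beads in 50 mM HEPES pH 7.4, 5 mM MgCl2, 1 mM CaCl2, 0.1% BSA, 1% DMSO; 90 min RT with agitation. Bound counts on scintillation counter; nonspecific defined by 1000-fold excess unlabeled compound.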

SMILES	Ki
CC1=C(C(=O)N2CCN(c3cccc(C(F)(F)F)c3)CC2)C2(CCN(C(C)Cc3ccccc3)CC2)OC1=O (stereo not shown) [Compound 104, 3-methyl-8-(1-methyl-2-phenylethyl)-4-({4-[3-(trifluoromethyl)phenyl]piperazin-1-yl}carbonyl)-1-oxa-8-azaspiro[4.5]dec-3-en-2-one]	< 50 nM
CC1=C(C(=O)N2CCN(c3cccc(C(F)(F)F)c3)CC2)C2(CCN(Cc3cc4ccccc4[nH]3)CC2)OC1=O [Compound 107, 8-(1H-indol-2-ylmethyl)-3-methyl-4-({4-[3-(trifluoromethyl)phenyl]piperazin-1-yl}carbonyl)-1-oxa-8-azaspiro[4.5]dec-3-en-2-one]	500 to 2000 nM
CC1=C(C(=O)N2CCN(c3cccc(Cl)c3)CC2)C2(CCN(Cc3ccccc3)CC2)OC1=O [Compound 110, 8-benzyl-4-{[4-(3-chlorophenyl)piperazin-1-yl]carbonyl}-3-methyl-1-oxa-8-azaspiro[4.5]dec-3-en-2-one]	500 to 2000 nM
CC1=C(C(=O)N2CCN(c3cccc(C#N)c3)CC2)C2(CCN(Cc3ccccc3)CC2)OC1=O [Compound 111, 3-{4-[(8-benzyl-3-methyl-2-oxo-1-oxa-8-azaspiro[4.5]dec-3-en-4-yl)carbonyl]piperazin-1-yl}benzonitrile]	500 to 2000 nM
CC1=C(C(=O)N2CCN(c3cccc(Cl)c3)CC2)C2(CCN(C)CC2)OC1=O [Compound 112, 4-{[4-(3-chlorophenyl)piperazin-1-yl]carbonyl}-3,8-dimethyl-1-oxa-8-azaspiro[4.5]dec-3-en-2-one]	500 to 2000 nM
CCN1CCC2(CC1)OC(=O)C(C)=C2C(=O)N1CCN(c2cc(Cl)cc(Cl)c2)CC1 [Compound 114, 4-{[4-(3,5-dichlorophenyl)piperazin-1-yl]carbonyl}-8-ethyl-3-methyl-1-oxa-8-azaspiro[4.5]dec-3-en-2-one]	100 to 500 nM
CC1=C(C(=O)N2CCc3ncc(C(F)(F)F)cc3C2)C2(CCN(C(C)C)CC2)OC1=O [Compound 115, 8-isopropyl-3-methyl-4-{[3-(trifluoromethyl)-7,8-dihydro-1,6-naphthyridin-6(5H)-yl]carbonyl}-1-oxa-8-azaspiro[4.5]dec-3-en-2-one]	< 50 nM
CC1=C(C(=O)N2CCc3ncc(C(F)(F)F)cc3C2)C2(CCN(CCF)CC2)OC1=O [Compound 116, 8-(2-fluoroethyl)-3-methyl-4-{[3-(trifluoromethyl)-7,8-dihydro-1,6-naphthyridin-6(5H)-yl]carbonyl}-1-oxa-8-azaspiro[4.5]dec-3-en-2-one]	< 50 nM
CC1=C(C(=O)N2CCc3ncc(C(F)(F)F)cc3C2)C2(CCN(C3CCOCC3)CC2)OC1=O [Compound 119, 3-methyl-8-(tetrahydro-2H-pyran-4-yl)-4-{[3-(trifluoromethyl)-7,8-dihydro-1,6-naphthyridin-6(5H)-yl]carbonyl}-1-oxa-8-azaspiro[4.5]dec-3-en-2-one]	< 50 nM
CCN1CCCC2(CC1)OC(=O)C(C)=C2C(=O)N1CCc2ccc(C(F)(F)F)cc2C1 (stereo not shown) [Compound 120, 8-ethyl-3-methyl-4-{[7-(trifluoromethyl)-3,4-dihydroisoquinolin-2(1H)-yl]carbonyl}-1-oxa-8-azaspiro[4.6]undec-3-en-2-one]	< 50 nM
CC1=C(C(=O)N2CCc3ncc(C(F)(F)F)cc3C2)C2(CCN(C)CC2)OC1=O [Compound 122, 3,8-dimethyl-4-{[3-(trifluoromethyl)-7,8-dihydro-1,6-naphthyridin-6(5H)-yl]carbonyl}-1-oxa-8-azaspiro[4.5]dec-3-en-2-one]	< 50 nM
CC1=C(C(=O)N2CCN(c3cccc(C(F)(F)F)c3)CC2)C2(CCN(CCCc3ccccc3)CC2)OC1=O [Example 5, 3-methyl-8-(3-phenylpropyl)-4-({4-[3-(trifluoromethyl)phenyl]piperazin-1-yl}carbonyl)-1-oxa-8-azaspiro[4.5]dec-3-en-2-one]	< 50 nM
COc1ccc(CCN2CCC3(CC2)OC(=O)C(C)=C3C(=O)N2CCN(c3cccc(C(F)(F)F)c3)CC2)cc1 [Example 6, 8-[2-(4-methoxyphenyl)ethyl]-3-methyl-4-({4-[3-(trifluoromethyl)phenyl]piperazin-1-yl]carbonyl)-1-oxa-8-azaspiro[4.5]dec-3-en-2-one, dihydrochloride salt]	< 50 nM

Further lines, results first:

Ki	SMILES
< 50 nM	CC1=C(C(=O)N2CCN(c3cccc(C(F)(F)F)c3)CC2)C2(CCN(CC(C)c3ccccc3)CC2)OC1=O (stereo not shown) [Compound 105, 3-methyl-8-(2-phenylpropyl)-4-({4-[3-(trifluoromethyl)phenyl]piperazin-1-yl}carbonyl)-1-oxa-8-azaspiro[4.5]dec-3-en-2-one]
< 50 nM	CC1=C(C(=O)N2CCN(c3cccc(C(F)(F)F)c3)CC2)C2(CCN(C3CCCCC3)CC2)OC1=O [Compound 106, 8-cyclohexyl-3-methyl-4-({4-[3-(trifluoromethyl)phenyl]piperazin-1-yl}carbonyl)-1-oxa-8-azaspiro[4.5]dec-3-en-2-one]
100 to 500 nM	CC1=C(C(=O)N2CCN(c3cccc(C(F)(F)F)c3)CC2)C2(CCN(CC(=O)c3ccccc3)CC2)OC1=O [Compound 108, 3-methyl-8-(2-oxo-2-phenylethyl)-4-({4-[3-(trifluoromethyl)phenyl]piperazin-1-yl}carbonyl)-1-oxa-8-azaspiro[4.5]dec-3-en-2-one]
100 to 500 nM	CC1=C(C(=O)N2CCN(c3cccc(C(F)(F)F)c3)CC2)C2(CCN(Cc3ccccc3)CC2)OC1=O [Compound 109, 8-benzyl-3-methyl-4-({4-[3-(trifluoromethyl)phenyl]piperazin-1-yl}carbonyl)-1-oxa-8-azaspiro[4.5]dec-3-en-2-one]
500 to 2000 nM	CCN1CCC2(CC1)OC(=O)C(C)=C2C(=O)N1CCN(c2ccc(C(F)(F)F)cc2)CC1 [Compound 113, 8-ethyl-3-methyl-4-({4-[4-(trifluoromethyl)phenyl]piperazin-1-yl}carbonyl)-1-oxa-8-azaspiro[4.5]dec-3-en-2-one]
< 50 nM	CC1=C(C(=O)N2CCN(c3cccc(C(F)(F)F)c3)CC2)C2(CCN(C(C)C)C2)OC1=O (stereo not shown) [Compound 117, 7-isopropyl-3-methyl-4-({4-[3-(trifluoromethyl)phenyl]piperazin-1-yl}carbonyl)-1-oxa-7-azaspiro[4.4]non-3-en-2-one]
50 to 100 nM	CCN1CCC2(C1)OC(=O)C(C)=C2C(=O)N1CCN(c2cccc(C(F)(F)F)c2)CC1 (stereo not shown) [Compound 118, 7-ethyl-3-methyl-4-({4-[3-(trifluoromethyl)phenyl]piperazin-1-yl}carbonyl)-1-oxa-7-azaspiro[4.4]non-3-en-2-one]
< 50 nM	CCN1CCCC2(CC1)OC(=O)C(C)=C2C(=O)N1CCN(c2cccc(C(F)(F)F)c2)CC1 (stereo not shown) [Compound 121, 8-ethyl-3-methyl-4-({4-[3-(trifluoromethyl)phenyl]piperazin-1-yl}carbonyl)-1-oxa-8-azaspiro[4.6]undec-3-en-2-one]
100 to 500 nM	CC1=C(C(=O)N2CCN(c3cccc(C(F)(F)F)c3)CC2)C2(CCNCC2)OC1=O [Example 1, 3-methyl-4-({4-[3-(trifluoromethyl)phenyl]piperazin-1-yl}carbonyl)-1-oxa-8-azaspiro[4.5]dec-3-en-2-one, dihydrochloride salt]
< 50 nM	COCCCN1CCC2(CC1)OC(=O)C(C)=C2C(=O)N1CCN(c2cccc(C(F)(F)F)c2)CC1 [Example 2, 8-(3-methoxypropyl)-3-methyl-4-({4-[3-(trifluoromethyl)phenyl]piperazin-1-yl}carbonyl)-1-oxa-8-azaspiro[4.5]dec-3-en-2-one]
< 50 nM	CC1=C(C(=O)N2CCN(c3cccc(C(F)(F)F)c3)CC2)C2(CCN(CCc3ccc(F)cc3)CC2)OC1=O [Example 3, 8-[2-(4-fluorophenyl)ethyl]-3-methyl-4-({4-[3-(trifluoromethyl)phenyl]piperazin-1-yl}carbonyl)-1-oxa-8-azaspiro[4.5]dec-3-en-2-one]
< 50 nM	COCCN1CCC2(CC1)OC(=O)C(C)=C2C(=O)N1CCN(c2cccc(C(F)(F)F)c2)CC1 [Example 4, 8-(2-methoxyethyl)-3-methyl-4-({4-[3-(trifluoromethyl)phenyl]piperazin-1-yl}carbonyl)-1-oxa-8-azaspiro[4.5]dec-3-en-2-one]
